# Results published in patent US20100254902A1, “STABILIZATION OF RADIOPHARMACEUTICALS” (priority 2008, published 2010).
# Test: Radiochemical purity (RCP) of [^18F]FDG composition by TLC, stability testing
# Protocol: Radiochemical purity of [^18F]FDG composition samples was determined at end of synthesis (EOS) and at Expiry i.e. after 10 hours storage at 22° C.±3° C. to determine stability of the composition.
# To a series of vials was added an amount of stabilizer dissolved in Buffer.
# At EOS (within 2 hours), a 100-fold dilution of the test solution was prepared by addition of a 10 μl sample to a 990 μl volume of water for injection. After mixing, a 2 μl sample was applied to a TLC strip.
# At 10 hours after synthesis, a 10-fold dilution was made by addition of a 20 μl sample to a 180 μl volume of water for injection. After mixing, a 3 μl sample was applied to a TLC strip.
# Within 1 to 3 hours after manufacture, radiochemical purity (RCP) was determined by TLC. The vials were stored at 22° C.±3° C. and at 10 hours after synthesis, RCP was again determined by TLC.
Compound,"RCP at EOS+10 h, difference GA versus ethanol (Example 5, vial 6 versus vial 5) [%]","stabiliser quality compared with ethanol (conclusion) (Example 5, vial 6 versus vial 5, approximately 2 mg/ml stabilizer)","effect of increasing amounts of gentisic acid on stabilisation of [^18F]FDG (Examples 2-4, batches <50 GBq at EOS, ranges 0.1-0.5, 0.5-1 and 1-2 mg/ml)","stabilising effect on [^18F]FDG composition (conclusion) (Example 1, additives 2.5-20 mg/ml acetone or ethanol, 3-6 mg/ml gentisic acid)"
"O=C(O)c1cc(O)ccc1O [gentisic acid, 2,5-dihydroxybenzoic acid]",1,better stabiliser than ethanol,the higher amount was found to be more effective,–
"CC(C)=O [Acetone, reference compound]",–,–,–,slight stabilising effect
